Assay results reported in patent US20100304380A1, “Quantitative DNA Methylation Imaging of Cells and Tissues” (EPILUMINA, INC., priority 2009, published 2010).

Key:
[1] = tested on: AtT20 mouse pituitary tumor cells; assay: Quantitative DNA Methylation (MeC) Imaging of nuclear MeC/DAPI colocalization; type: cell-based; details: treated AtT20 cells in culture versus untreated cells (tight colocalization); FIG. 3
Source text: Approximately 55% of the human genome is comprised of heterochromatin. […] Therefore, we used the genome and its 3D organization as an indicator to evaluate the effect of demethylating drugs on cancer cells in situ. Our approach provides a statistical measurement on the two classes of DNAs (MeC and DAPI-positive gDNA) as nuclear targets. The algorithm compares the relative distribution of signals derived from these two targets (from two color-channels), projects them onto scatter plots (FIGS. 3 and 4), and then measures the degree of similarities between the plotted signal distributions of cells within a population. This method offers a way to evaluate cellular response to external factors such as drugs and changes in culture conditions via dissimilarity assessment of relevant cellular structures. […] This method considers the strength of statistical evaluation of intra-nuclear MeC/DAPI patterns, especially valuable when cell population homogeneity is difficult to be assessed due to lack of standardized reference and sample size.
FIG. 1 is a workflow of Quantitative DNA Methylation (MeC) Imaging comprised of three steps: (1) immunofluorescence with antibodies against MeC (and against a cell-type or cell-characteristic marker) and DNA counterstaining with DAPI, (2) high-resolution fluorescence microscopy to collect 2D optical sections of the cells, and (3) 3D fluorescence image analysis. […]

[2] = tested on: TtT-GF mouse folliculostellate pituitary cell nuclei; assay: Quantitative DNA Methylation Imaging of nuclear MeC/DAPI colocalization; type: cell-based; details: 100 nM, 24 hours, TtT-GF cells in culture; selected cells 1-5; FIG. 4
Source text: Therefore, we used the genome and its 3D organization as an indicator to evaluate the effect of demethylating drugs on cancer cells in situ. Our approach provides a statistical measurement on the two classes of DNAs (MeC and DAPI-positive gDNA) as nuclear targets. The algorithm compares the relative distribution of signals derived from these two targets (from two color-channels), projects them onto scatter plots (FIGS. 3 and 4), and then measures the degree of similarities between the plotted signal distributions of cells within a population. This method offers a way to evaluate cellular response to external factors such as drugs and changes in culture conditions via dissimilarity assessment of relevant cellular structures. […] This method considers the strength of statistical evaluation of intra-nuclear MeC/DAPI patterns, especially valuable when cell population homogeneity is difficult to be assessed due to lack of standardized reference and sample size. FIG. 1 is a workflow of Quantitative DNA Methylation (MeC) Imaging comprised of three steps: (1) immunofluorescence with antibodies against MeC (and against a cell-type or cell-characteristic marker) and DNA counterstaining with DAPI, (2) high-resolution fluorescence microscopy to collect 2D optical sections of the cells, and (3) 3D fluorescence image analysis. […]

Row | SMILES | change of nuclear DNA methylation patterns (MeC vs heterochromatin/DAPI colocalization) [1] | response (demethylation) of the cell population, MeC vs heterochromatin/DAPI colocalization [2]
1 | Nc1ncn([C@@H]2O[C@H](CO)[C@@H](O)[C@H]2O)c(=O)n1 [5-azacytidine] | large foci that are uniquely comprised of three types of signals/genomic loci | 
2 | C[C@@H](O)[C@@H]1NC(=O)[C@H](CCCCN)NC(=O)[C@@H](Cc2c[nH]c3ccccc23)NC(=O)[C@H](Cc2ccccc2)NC(=O)[C@@H](NC(=O)[C@H](N)Cc2ccccc2)CSSC[C@@H](C(=O)N[C@H](CO)[C@@H](C)O)NC1=O [octreotide] |  | diverse response
